Assay results taken from US6197806A, “Eliminating agent for activated oxygen and free radicals” (Nippon Zoki Pharmaceutical Co., Ltd., priority 1995, dated 2001).

Experiment: Measurement of ability for eliminating hydroxyl radicals (ESR spin trapping method, Fenton's reaction, DMPO)
Conditions: 1 mM of DMPO; DMPO-OH ESR signal; phosphate buffer pH 7.8; room temperature; read-out: Concentration of Test Substance at 50% Inhibition of Signal Intensity, IC50
Description: Ability of the test substances for eliminating hydroxyl radicals was measured using an ESR spin trapping method which is frequently used for the detection of hydroxyl radicals. Generation of hydroxyl radicals was carried out using a Fenton's reaction in which hydroxyl radicals are generated by a reaction of divalent iron chelated with DTPA (diethylenediamine-pentaacetic acid) with hydrogen peroxide. […] When a test substance having an eliminating action for hydroxyl radicals is present in this reaction system, the above characteristic signal is inhibited and, therefore, the ability for eliminating hydroxyl radicals can be measured using that signal inhibition as an index.
Thus, a solution of a mixture of 1 mM of ferrous sulfate and DTPA dissolved in 100 mM of a phosphate buffer (pH 7.8) was charged in a test tube. Then, 50 μl of a sample solution containing the test substance or hydantoin compound of the invention and 20 μl of 1 mM or 2 mM of DMPO were added. Finally, 75 μl of 1 mM of hydrogen peroxide solution was added to the resulting mixture to initiate the reaction. Hydrogen peroxide solution was prepared immediately before each of the experiments and the reaction was conducted at room temperature.
An ESR spectrum in this reaction system was measured by conventional means. […]

## CN1C(=O)NC(=O)C1O (stereo not shown) [Compound 21, 5-Hydroxy-1-methylhydantoin]
  IC50: 1000 µM
